Assay results reported in patent US10407381B2 (THE BOARD OF TRUSTEES OF THE UNIVERSITY OF ILLINOIS, priority 2015, dated 2019).
Where two headings read alike, the source gives them in different places.

Tests used:
5-HT2A = 5-HT2A (Homo sapiens, UniProt P28223); experiment: Calcium flux (FLIPR) assay, human 5-HT2A stably expressed in HEK-293 (Flp-In-293) cells; settings: human 5-HT2A in HEK-293 cells, FLIPR; for Emax, % 5-HT 5-HT2A: normalized to 5-HT; for EC50: NA = no activity at 10 μM
human 5-HT2C-INI = biological target: T1, human 5-HT2C-INI (Homo sapiens, UniProt P28335); experiment: Calcium flux (FLIPR) assay, human 5-HT2C-INI stably expressed in HEK-293 (Flp-In-293) cells; settings: for Emax, % 5-HT 5-HT2C: normalized to 5-HT
T1 sequence (P28335 33-458): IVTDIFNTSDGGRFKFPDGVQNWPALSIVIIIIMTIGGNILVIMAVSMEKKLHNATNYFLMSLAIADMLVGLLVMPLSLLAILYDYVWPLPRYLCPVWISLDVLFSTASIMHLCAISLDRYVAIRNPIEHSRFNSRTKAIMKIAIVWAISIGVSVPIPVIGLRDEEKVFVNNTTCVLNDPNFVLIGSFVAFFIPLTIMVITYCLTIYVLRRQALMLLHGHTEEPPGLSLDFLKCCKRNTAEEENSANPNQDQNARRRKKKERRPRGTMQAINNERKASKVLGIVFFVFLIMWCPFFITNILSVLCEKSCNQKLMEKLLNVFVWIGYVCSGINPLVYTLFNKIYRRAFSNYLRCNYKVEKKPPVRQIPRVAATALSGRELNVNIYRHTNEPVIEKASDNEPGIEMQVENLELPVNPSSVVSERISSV

5-HT2B = 5-HT2B (Homo sapiens, UniProt P41595); experiment: Calcium flux (FLIPR) assay, human 5-HT2B stably expressed in HEK-293 (Flp-In-293) cells; settings: human 5-HT2B in HEK-293 cells; for EC50: EC50, nM 5-HT2B, NA = no activity at 10 μM; for Emax, % 5-HT 5-HT2B: normalized to 5-HT
[1] = human 5-HT2C-INI in HEK-293 cells, FLIPR
[2] = EC50, nM 5-HT2C, human 5-HT2C-INI in HEK-293 cells, FLIPR, NA = no activity at 10 μM

5-HT2A, sequence (P28223 whole entry): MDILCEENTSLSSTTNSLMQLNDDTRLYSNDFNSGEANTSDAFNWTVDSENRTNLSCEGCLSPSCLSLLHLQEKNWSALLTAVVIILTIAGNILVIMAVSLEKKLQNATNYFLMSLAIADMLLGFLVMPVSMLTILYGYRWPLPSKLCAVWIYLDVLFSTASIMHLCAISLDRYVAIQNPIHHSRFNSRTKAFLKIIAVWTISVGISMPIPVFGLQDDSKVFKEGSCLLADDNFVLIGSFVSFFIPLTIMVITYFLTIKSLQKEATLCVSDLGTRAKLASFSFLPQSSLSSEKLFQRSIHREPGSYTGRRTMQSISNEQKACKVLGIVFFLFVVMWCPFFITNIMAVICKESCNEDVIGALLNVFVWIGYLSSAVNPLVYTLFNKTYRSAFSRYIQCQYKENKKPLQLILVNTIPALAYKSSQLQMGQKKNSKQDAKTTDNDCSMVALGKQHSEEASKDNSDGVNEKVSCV
5-HT2B, sequence (P41595 whole entry): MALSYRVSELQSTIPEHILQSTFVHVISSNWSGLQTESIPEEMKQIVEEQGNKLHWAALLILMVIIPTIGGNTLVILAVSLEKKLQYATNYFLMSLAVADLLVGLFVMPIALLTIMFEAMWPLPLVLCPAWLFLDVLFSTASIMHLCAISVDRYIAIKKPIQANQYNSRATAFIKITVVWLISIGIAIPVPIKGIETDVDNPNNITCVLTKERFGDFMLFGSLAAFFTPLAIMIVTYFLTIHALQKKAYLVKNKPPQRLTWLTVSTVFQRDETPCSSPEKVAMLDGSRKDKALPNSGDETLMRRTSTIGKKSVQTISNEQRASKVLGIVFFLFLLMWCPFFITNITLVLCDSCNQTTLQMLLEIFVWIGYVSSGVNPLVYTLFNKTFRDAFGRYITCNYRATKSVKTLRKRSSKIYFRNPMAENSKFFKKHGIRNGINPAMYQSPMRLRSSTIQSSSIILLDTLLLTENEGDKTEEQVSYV

Row | Structure (SMILES) | Emax, % 5-HT 5-HT2A (5-HT2A) | EC50 (5-HT2A; read-out: EC50, nM 5-HT2A) [nM] | Emax, % 5-HT 5-HT2C (human 5-HT2C-INI; [1]) | EC50 (human 5-HT2C-INI; read-out: EC50, nM 5-HT2C, human 5-HT2C-INI in HEK-293 cells, FLIPR, NA = no activity at 10 μM) [nM] | EC50 (5-HT2A; EC50, nM 5-HT2A) [nM] | EC50 (human 5-HT2C-INI; [2]) [nM] | EC50 (5-HT2B) [nM] | Emax, % 5-HT 5-HT2B (5-HT2B) | EC50 (human 5-HT2C-INI; EC50, nM 5-HT2C) [nM]
1 | COc1ccc(F)c(Cl)c1C1CC1CN (single isomer, unassigned; (-)) [(−)-Example 50, (−)-(2-(2-Chloro-3-fluoro-6-methoxyphenyl)cyclopropyl)methanamine] | (72%) % 5-HT | 119 | (96%) % 5-HT | 3.2 | – | – | – | – | –
2 | CCOc1cc(F)c(Cl)cc1C1CC1CN (single isomer, unassigned; (-)) [(−)-Example 2, (−)-(2-(5-Chloro-2-ethoxy-4-fluorophenyl)cyclopropyl)methanamine] | (18%) % 5-HT | – | (92%) % 5-HT | – | 1240 | 118 | – | – | –
3 | C=CCOc1ccc(F)cc1C1CC1CN (single isomer, unassigned; (-)) [(−)-Example 8, (−)-(2-(2-(Allyloxy)-5-fluorophenyl)cyclopropyl)methanamine] | (56%) % 5-HT | – | (87%) % 5-HT | – | 697 | 157 | – | – | –
4 | C=C(F)COc1ccc(F)cc1C1CC1CN (single isomer, unassigned; (+)) [(+)-Example 9, (+)-(2-(5-Fluoro-2-((2-fluoroallyl)oxy)phenyl)cyclopropyl)methanamine] | (17%) % 5-HT | – | (91%) % 5-HT | – | 1670 | 22 | – | – | –
5 | C=CCOc1ccc(Cl)cc1C1CC1CN (single isomer, unassigned; (+)) [(+)-Example 23, (+)-(2-(2-(Allyloxy)-5-chlorophenyl)cyclopropyl)methanamine] | – | – | (80%) % 5-HT | – | – | 60 | 2210 | (32%) % 5-HT | –
6 | C=CCOc1ccc(Cl)cc1C1CC1CN (single isomer, unassigned; (-)) [(−)-Example 23, (−)-(2-(2-(Allyloxy)-5-chlorophenyl)cyclopropyl)methanamine] | – | – | (42%) % 5-HT | – | – | 737 | 4300 | (28%) % 5-HT | –
7 | C=CCOc1ccc(F)c(F)c1C1CC1CN (single isomer, unassigned; (-)) [(−)-Example 49, (−)-(2-(6-(Allyloxy)-2,3-difluorophenyl)cyclopropyl)methanamine] | – | – | (89%) % 5-HT | – | – | 151 | 4460 | (26%) % 5-HT | –
8 | C=CCOc1cc(F)c(Cl)cc1C1CC1CN (single isomer, unassigned; (+)) [(+)-Example 5, (+)-(2-(2-(Allyloxy)-5-chloro-4-fluorophenyl)cyclopropyl)methanamine] | – | – | (87%) % 5-HT | – | – | 42 | 1000 | (44%) % 5-HT | –
9 | C=CCOc1cc(Cl)c(Cl)cc1C1CC1CN (single isomer, unassigned; (-)) [(−)-Example 35, (−)-(2-(2-(Allyloxy)-4,5-dichlorophenyl)cyclopropyl)methanamine] | – | – | (84%) % 5-HT | – | – | 278 | – | (14%) % 5-HT | –
10 | CCCOc1ccc(F)cc1C1CC1CN (single isomer, unassigned; (-)) [(−)-Example 7, (−)-(2-(5-Fluoro-2-propoxyphenyl)cyclopropyl)methanamine] | – | – | (80%) % 5-HT | – | – | 296 | 735 | (11%) % 5-HT | –
11 | NCC1CC1c1cc(Cl)ccc1OCCCF (single isomer, unassigned; (-)) [(−)-Example 20, (−)-(2-(5-Chloro-2-(3-fluoropropoxy)phenyl)cyclopropyl)methanamine] | – | – | (24%) % 5-HT | – | – | 1260 | 6170 | (22%) % 5-HT | –
12 | NCC1CC1c1cc(Cl)c(F)cc1OCCF (single isomer, unassigned; (-)) [(−)-Example 4, (−)-(2-(5-Chloro-4-fluoro-2-(2-fluoroethoxy)phenyl)cyclopropyl)methanamine] | – | – | (70%) % 5-HT | – | – | 776 | 2520 | (26%) % 5-HT | –
13 | CCOc1ccc(Cl)cc1C1CC1CN (single isomer, unassigned; (-)) [(−)-Example 11, (−)-(2-(5-Chloro-2-ethoxyphenyl)cyclopropyl)methanamine] | – | – | (72%) % 5-HT | – | – | 646 | 2310 | (26%) % 5-HT | –
14 | NCC1CC1c1cc(F)ccc1OCCF (single isomer, unassigned; (-)) [(−)-Example 10, (−)-(2-(5-Fluoro-2-(2-fluoroethoxy)phenyl)cyclopropyl)methanamine] | (20%) % 5-HT | – | (77%) % 5-HT | – | 2990 | 514 | – | – | –
15 | CC(C)Oc1ccc(Cl)cc1C1CC1CN (single isomer, unassigned; (-)) [(−)-Example 14, (−)-(2-(5-Chloro-2-isopropoxyphenyl)cyclopropyl)methanamine] | – | – | (37%) % 5-HT | – | – | 2480 | 5660 | (19%) % 5-HT | –
16 | NCC1CC1c1cc(Cl)c(F)cc1OCCF (single isomer, unassigned; (+)) [(+)-Example 4, (+)-(2-(5-Chloro-4-fluoro-2-(2-fluoroethoxy)phenyl)cyclopropyl)methanamine] | – | – | (87%) % 5-HT | – | – | 24 | 506 | (39%) % 5-HT | –
17 | NCC1CC1c1c(OCCF)ccc(Cl)c1Cl (single isomer, unassigned; (-)) [(−)-Example 38, (−)-(2-(2,3-Dichloro-6-(2-fluoroethoxy)phenyl)cyclopropyl)methanamine] | – | – | (85%) % 5-HT | – | – | 224 | 10400 | (62%) % 5-HT | –
18 | C=CCOc1cc(F)c(Cl)cc1C1CC1CN (single isomer, unassigned; (-)) [(−)-Example 5, (−)-(2-(2-(Allyloxy)-5-chloro-4-fluorophenyl)cyclopropyl)methanamine] | – | – | (77%) % 5-HT | – | – | 308 | 1960 | (22%) % 5-HT | –
19 | CCCOc1cc(F)c(F)cc1C1CC1CN (single isomer, unassigned; (-)) [(−)-Example 43, (−)-(2-(4,5-Difluoro-2-propoxyphenyl)cyclopropyl)methanamine] | – | – | (89%) % 5-HT | – | – | – | 2970 | (13%) % 5-HT | 119
20 | C=CCOc1ccc(F)c(Cl)c1C1CC1CN (single isomer, unassigned; (-)) [(−)-Example 53, (−)-(2-(6-(Allyloxy)-2-chloro-3-fluorophenyl)cyclopropyl)methanamine] | – | – | (89%) % 5-HT | – | – | 101 | – | (57%) % 5-HT | –
21 | CCCOc1ccc(Cl)cc1C1CC1CN (single isomer, unassigned; (-)) [(−)-Example 12, (−)-(2-(5-Chloro-2-propoxyphenyl)cyclopropyl)methanamine] | – | – | (31%) % 5-HT | – | – | 1230 | 3000 | (21%) % 5-HT | –
